In US20260258035A1, “FIVE-MEMBERED AND SIX-MEMBERED NITROGEN-CONTAINING COMPOUND, AND INTERMEDIATE, PREPARATION METHOD AND USE THEREOF” (HANGZHOU SYNRX THERAPEUTICS BIOMEDICAL TECHNOLOGY CO., LTD., priority 2022, published 2026):

Molecular target: PARG (Homo sapiens, UniProt Q86W56)
Assay: Biochemical assay (PARG, TFMU-ADPr substrate)
[1] = 4 nM PARG, 66.2 uM TFMU-ADPr, 3 min at room temperature

PARG, sequence (Q86W56 whole entry): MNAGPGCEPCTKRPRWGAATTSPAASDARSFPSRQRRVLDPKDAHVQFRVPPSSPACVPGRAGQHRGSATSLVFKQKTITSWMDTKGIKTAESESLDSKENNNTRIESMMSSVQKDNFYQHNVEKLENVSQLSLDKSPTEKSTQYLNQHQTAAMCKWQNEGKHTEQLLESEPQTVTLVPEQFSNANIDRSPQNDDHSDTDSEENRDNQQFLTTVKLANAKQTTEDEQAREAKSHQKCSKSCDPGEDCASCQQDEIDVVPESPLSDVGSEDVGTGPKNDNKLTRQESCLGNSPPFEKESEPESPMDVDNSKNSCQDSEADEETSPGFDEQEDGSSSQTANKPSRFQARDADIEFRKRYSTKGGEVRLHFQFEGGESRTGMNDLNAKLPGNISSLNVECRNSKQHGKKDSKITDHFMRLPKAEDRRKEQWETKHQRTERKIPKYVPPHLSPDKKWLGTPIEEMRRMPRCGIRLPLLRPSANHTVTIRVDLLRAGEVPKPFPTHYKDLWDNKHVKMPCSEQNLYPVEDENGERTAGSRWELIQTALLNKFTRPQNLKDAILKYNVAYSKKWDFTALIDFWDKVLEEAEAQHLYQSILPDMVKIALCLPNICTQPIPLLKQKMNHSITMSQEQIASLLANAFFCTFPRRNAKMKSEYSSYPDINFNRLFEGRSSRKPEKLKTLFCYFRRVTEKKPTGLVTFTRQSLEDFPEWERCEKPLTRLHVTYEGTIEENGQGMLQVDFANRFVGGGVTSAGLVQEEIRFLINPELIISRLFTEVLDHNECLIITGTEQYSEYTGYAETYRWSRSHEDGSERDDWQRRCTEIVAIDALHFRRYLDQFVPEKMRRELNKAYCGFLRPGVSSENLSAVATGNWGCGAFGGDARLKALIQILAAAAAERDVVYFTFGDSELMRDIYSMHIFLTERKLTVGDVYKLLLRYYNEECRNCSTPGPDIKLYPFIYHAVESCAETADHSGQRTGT

| SMILES | IC50 [1] | IC50 (PARG, TFMU-ADPr substrate) |
| --- | --- | --- |
| O=S(=O)(NC1(CF)CC1)c1cc(N2CCC(O)C2)c2cnc(-c3nnc(C(F)F)s3)n2c1 (stereo not drawn) [Example 46, 3-(5-(difluoromethyl)-1,3,4-thiadiazol-2-yl)-N-(1-(fluoromethyl)cyclopropyl)-8-(3-hydroxypyrrolidin-1-yl)imidazo[1,5-a]pyridine-6-sulfonamide] | < 100 nM | 6.31 nM |
| CC(C)C(=O)N1CCN(c2cc(S(=O)(=O)NC3(C#N)CC3)cn3c(-c4cc5n(n4)CCCC5F)cnc23)CC1 (stereo not drawn) [Example 8] |  | 9690 nM |
| C[C@@H]1CN(c2cc(S(=O)(=O)NC3(C#N)CC3)cn3c(-c4nnc(C(F)F)s4)ncc23)CCN1C(=O)C1CNC1 [Example 288, (R)-8-(4-(azetidine-3-carbonyl)-3-methylpiperazin-1-yl)-N-(1-cyanocyclopropyl)-3-(5-(difluoromethyl)-1,3,4-thiadiazol-2-yl)imidazo[1,5-a]pyridine-6-sulfonamide] |  | 6.03 nM |
| CC1(C(=O)N2CCN(c3cc(S(=O)(=O)NC4(C#N)CC4)cn4c(-c5nnc(C(F)F)s5)ncc34)CC2(C)C)CC1 [Example 95, N-(1-cyanocyclopropyl)-3-(5-(difluoromethyl)-1,3,4-thiadiazol-2-yl)-8-(3,3-dimethyl-4-(1-methylcyclopropane-1-carbonyl)piperazin-1-yl)imidazo[1,5-a]pyridine-6-sulfonamide] | < 100 nM | 100 nM |
| Cc1c(-c2cc(S(=O)(=O)NC3(C#N)CC3)cn3c(-c4nnc(C(F)F)s4)ncc23)cnn1C(C)C [Example 143, N-(1-cyanocyclopropyl)-3-(5-(difluoromethyl)-1,3,4-thiadiazol-2-yl)-8-(1-isopropyl-5-methyl-1H-pyrazol-4-yl)imidazo[1,5-a]pyridine-6-sulfonamide] | < 100 nM | 12 nM |
| COc1ccc(N(C)c2cc(S(=O)(=O)NC3(C#N)CC3)cn3c(-c4nnc(C(F)F)s4)ncc23)cc1 [Example 45, N-(1-cyanocyclopropyl)-3-(5-(difluoromethyl)-1,3,4-thiadiazol-2-yl)-8-((4-methoxyphenyl)(methyl)amino)imidazo[1,5-a]pyridine-6-sulfonamide] | 100 to 500 nM | 135 nM |
| CC(C)C(=O)N1CCN(c2cc(S(=O)(=O)NC3COC3)cn3c(-c4nnc(C(F)F)s4)cnc23)CC1 [Example 16, 3-(5-(difluoromethyl)-1,3,4-thiadiazol-2-yl)-8-(4-isobutyrylpiperazin-1-yl)-N-(oxetan-3-yl)imidazo[1,2-a]pyridine-6-sulfonamide] | < 100 nM | 29.7 nM |
| Cc1ncc(-c2cnc3c(N4CCN(C(=O)C(C)C)CC4)cc(S(=O)(=O)NC4(C#N)CC4)cn23)s1 [Example 1, N-(1-cyanocyclopropyl)-8-(4-isobutyrylpiperazin-1-yl)-3-(2-methylthiazol-5-yl)imidazo[1,2-a]pyridine-6-sulfonamide] |  | 1540 nM |
| C[C@H]1CN(c2cc(S(=O)(=O)NC3(C)COC3)cn3c(-c4nnc(C(F)F)s4)nc(Cl)c23)C[C@H](CO)O1 [Example 133, 1-chloro-3-(5-(difluoromethyl)-1,3,4-thiadiazol-2-yl)-8-((2R,6S)-2-(hydroxymethyl)-6-methylmorpholino)-N-(3-methyloxetan-3-yl)imidazo[1,5-a]pyridine-6-sulfonamide] |  | 13.2 nM |
| CN1CCN(c2cc(S(=O)(=O)NC3(C#N)CC3)cn3c(-c4nnc(C(F)F)s4)ncc23)CC1=O [Example 41, N-(1-cyanocyclopropyl)-3-(5-(difluoromethyl)-1,3,4-thiadiazol-2-yl)-8-(4-methyl-3-oxopiperazin-1-yl)imidazo[1,5-a]pyridine-6-sulfonamide] | < 100 nM | 29.8 nM |
| CN1CC(Nc2cc(S(=O)(=O)NC3(C#N)CC3)cn3c(-c4nnc(C(F)F)s4)ncc23)C1 [Example 150, N-(1-cyanocyclopropyl)-3-(5-(difluoromethyl)-1,3,4-thiadiazol-2-yl)-8-((1-methylazetidin-3-yl)amino)imidazo[1,5-a]pyridine-6-sulfonamide] | < 100 nM | 8.29 nM |
